Columns and labels:
[1] = tested on: anti-GD3 antibody 4F6; experiment: ELISA of MAPs immobilized at various amounts with 4F6 (Example 5(2), FIG. 3); format: binding, mouse; conditions: MAPs or GD3 immobilized at various amounts
Text: (1) In a manner similar to that described in Example 3, peptides of N-terminus 9 amino acid residues or C-terminus 9 amino acid residues of GD3R1, GD3R2, GD3R3, or GD3R4. The nomenclature and sequences of respective peptides employed in the present test are shown in FIG. 2 These were employed as multi-antigen peptides (MAPs). (2) In order to extend the research on bonding between the anti-GD3 antibody 4F6 and each of the GD3-mimetic peptides shown in FIG. 1, multi-antigen peptides (MAPs) were subjected to ELISA. MAP samples having a variety of concentrations shown on the X-axis in FIG. 3 were provided, and each sample was immobilized onto the wells of a 96-well plate. Subsequently, the wells were blocked with a blocking solution (TBS supplemented with 1% BSA, 0.1% skim milk, and 0.02% Tween 20) at 4° C. overnight. 4F6 (hybridoma supernatant: used in the neat form) was added (100 μL/well) for reaction at room temperature for 2 hours. After completion of reaction, the supernatant was discarded, and the wells were washed with a washing solution (TBS supplemented with 1% FBS and 0.05% Tween 20) six times. Subsequently, the wells were allowed to react with peroxidase-labeled anti-mouse IgG (diluted 1,000-fold with a blocking solution) at room temperature for 2 hours. The wells were again washed with a washing solution four times, and the amount of peroxidase enzyme remaining in each well was detected and quantitatively determined with the substrate TMB, whereby binding of MAP to 4F6 was investigated. The test was performed in triplicate, and the values in the graph are “mean ±SD.”

[2] = tested on: binding between GD3 and 4F6 (anti-GD3 antibody); experiment: Inhibition by immobilized MAPs of binding between GD3 and 4F6 (Example 5(3), FIG. 4); parameters: species or system mouse; conditions: immobilized MAP or GD3 absorbs 4F6
Description: (3) The binding affinity shown in FIG. 3 was investigated in another method. Briefly, MAP samples having a variety of concentrations shown on the X-axis in FIG. 4 were provided. Each sample was immobilized onto the wells of a 96-well plate, and the wells were allowed to react with 4F6 (100 μL/well) at 4° C. overnight. On the following day, the supernatant (80 μL) was collected and added to the wells of another plate to which GD3 had been immobilized in advance (100 ng/well) for reaction at room temperature for 2 hours. After completion of reaction, the amount of antibody 4F6 that had been condensed with GD3 (i.e., that had not been absorbed by MAP) was detected and quantitatively determined through the method described (2) above, whereby inhibitory effect of MAP on binding of GD3 to 4F6 was investigated. The test was performed in triplicate, and the values in the graph are “mean ±SD.”

Row | Sequence | binding of 4F6 to immobilized sample (words, FIG. 3) [1] | inhibition of GD3 binding to 4F6 by immobilized sample (words, FIG. 4) [2]
1 | GLAPPDYAERFELLS [GD3R3, tested as phage clone, MAP form or peptide] | in an amount-dependent manner | inhibit GD3 from binding to the antibody
2 | RHAYRSMAEWGFLYS (RHAYRSMAQWGFLYS) [GD3R4, tested as phage clone, MAP form or peptide] | in an amount-dependent manner | inhibit GD3 from binding to the antibody
